Results published in PubChem BioAssay (NCI).
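Where inhibition never reached the appropriate level, the endpoint shown equals the highest concentration tested. Otherwise, values were interpolated linearly from a five-concentration, 48-hour dose response in 96-well plates. GI50: concentration for 50% inhibition of growth. The concentration for full growth arrest is given as TGI.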

Columns and labels:
Experiment in all cases: DTP human tumour cell line panel, 48 h
MOLT-4 leukemia = tested on: MOLT-4 leukemia
RPMI-8226 leukemia = tested on: RPMI-8226 leukemia
KM12 colon = tested on: KM12 colon
786-0 renal = tested on: 786-0 renal
HOP-62 NSCLC = tested on: HOP-62 NSCLC
UACC-257 melanoma = tested on: UACC-257 melanoma
M14 melanoma = tested on: M14 melanoma
SN12C renal = tested on: SN12C renal
OVCAR-5 ovarian = tested on: OVCAR-5 ovarian
SF-295 CNS = tested on: SF-295 CNS
BT-549 breast = tested on: BT-549 breast

Structure (SMILES) | TGI (MOLT-4 leukemia) [µM] | TGI (RPMI-8226 leukemia) [µM] | TGI (KM12 colon) [µM] | TGI (786-0 renal) [µM] | TGI (HOP-62 NSCLC) [µM] | TGI (UACC-257 melanoma) [µM] | TGI (M14 melanoma) [µM] | TGI (SN12C renal) [µM] | TGI (OVCAR-5 ovarian) [µM] | TGI (SF-295 CNS) [µM] | TGI (BT-549 breast) [µM] | GI50 (MOLT-4 leukemia) [µM] | GI50 (RPMI-8226 leukemia) [µM] | GI50 (KM12 colon) [µM] | GI50 (HOP-62 NSCLC) [µM] | GI50 (UACC-257 melanoma) [µM] | GI50 (M14 melanoma) [µM] | GI50 (SN12C renal) [µM] | GI50 (OVCAR-5 ovarian) [µM] | GI50 (SF-295 CNS) [µM]
COC(=O)CCN(CCC(=O)OC)C1CC1 | > 100 | > 100 | > 100 | > 100 | > 100 | > 100 | > 100 | > 100 | > 100 | > 100 |  |  |  |  |  |  |  |  |  | 
Nc1nc(SCCC/C=C/I)nc2c1ncn2C1OC(CO)C(O)C1O (stereo not drawn) | > 202 | > 202 | > 202 | > 202 | > 202 | > 202 | > 202 | > 202 | > 202 | > 202 |  |  |  |  |  |  |  |  |  | 
O=C1/C(=C/c2ccco2)NC(=S)N1CN1CCOCC1 | > 100 | > 100 | > 100 | > 100 | > 100 | > 100 | > 100 | > 100 | > 100 | > 100 |  |  |  |  |  |  |  |  |  | 
COc1ccc2c(c1)CC[C@@H]1[C@@H]2CC[C@]2(C)C(=O)/C(=C/c3cc(OC)c(OC)c(OC)c3)C[C@@H]12 | > 100 | > 100 | 82.9 | 39 | 30.7 |  | 41.2 |  | 62.4 | 74.6 | 63.9 |  |  |  |  |  |  |  |  | 
N#Cc1c(N2CCN(c3ccc([N+](=O)[O-])cc3)CC2)[n+](=O)c2ccc(Cl)cc2n1[O-] | 8.52 |  | 13.3 | 4.58 |  | 8.21 | > 23.4 | 3.05 | 29.1 | > 28.3 | 1.61 |  |  |  |  |  |  |  |  | 
CC(=O)OCC1OC(c2nnc(C)o2)=CC(OC(C)=O)C1OC(C)=O (stereo not drawn) | > 100 | > 100 | > 100 | > 100 | > 100 | > 100 |  | > 100 | > 100 | > 100 | > 100 |  |  |  |  |  |  |  |  | 
COC1/C=C/C(C)C(C(C)C(OC)C(C)CCC(=O)C(C)C(C/C=C/N(C)C=O)OC)OC(=O)/C=C/C=C(\C)CC(OC)C(OC)C2=CC(=O)O[C@@H](C(C)C(OC)CC(OC)/C=C/C(C)C(O)C1)[C@H]2O (stereo partly drawn) | > 100 |  | 3.02 | 0.434 | 0.218 | 0.338 | 0.309 |  | 0.623 | 0.273 | 0.544 |  |  |  |  |  |  |  |  | 
CC1CCC2(CC1)N=C1CCC(C)CC1C1(CCC(C)CC1)N2 (stereo not drawn) | 95.3 | > 100 | > 100 | > 100 |  | > 100 | > 100 |  | > 100 | > 100 | > 100 |  |  |  |  |  |  |  |  | 
NC(=O)CS(=O)CC(N)C(=O)O (stereo not drawn) | > 100 |  | > 100 | > 100 | > 100 | > 100 | > 100 | > 100 | > 100 | > 100 | > 100 |  |  |  |  |  |  |  |  | 
CCCCCCOc1ccc(NC2=C(Cl)C(=O)c3ncccc3C2=O)cc1 | > 10 |  | 3.14 | 5.75 | 3.88 | 4.54 | 4.04 | 3.12 | > 10 | 3.59 | 3.56 |  |  |  |  |  |  |  |  | 
COc1cc(C2S/C(=C/c3ccccc3)C(=O)N2c2cccc([N+](=O)[O-])c2)cc(OC)c1OC (stereo not drawn) | > 100 |  | > 100 | > 100 | > 100 | > 100 | > 100 | > 100 | > 100 | > 100 | > 100 |  |  |  |  |  |  |  |  | 
Clc1ncnc2c1ncn2CCCCCCCCCCCCn1cnc2c(Cl)ncnc21 | 42.9 | 25.4 | 28.9 | 71.8 | 33 | 11.9 | 29.6 | 37.5 | 72.7 | 28.8 |  |  |  |  |  |  |  |  |  | 
Cn1ccc(C(=O)NCCCCCNC(=O)c2ccn(C)c(=O)c2O)c(O)c1=O |  |  | > 100 | > 100 |  | > 100 |  | > 100 |  |  | > 100 |  |  |  |  |  |  |  |  | 
OCC(O)C(O)C(O)C(/C=N\Nc1ncnc2ccc(Br)cc12)=N/Nc1ncnc2ccc(Br)cc12 (stereo not drawn) | > 100 | > 100 | > 100 | > 100 | > 100 | > 100 | 71.2 | > 100 | > 100 | > 100 |  |  |  |  |  |  |  |  |  | 
CCOC(=O)C(=Cn1c(=S)[nH]c2ccc([N+](=O)[O-])cc21)C(=O)OCC | > 100 | > 100 | > 100 | > 100 | > 100 | > 100 | > 100 | > 100 | > 100 | > 100 |  |  |  |  |  |  |  |  |  | 
O=C(Nc1cccc(-n2ccc3c(NC(=O)c4ccccc4)nccc32)c1)c1cc(N2CCOCC2)cc(C(F)(F)F)c1 | > 100 |  |  |  | > 100 | > 100 |  | > 100 | > 100 | 2.16 |  | 0.907 | 0.223 | 0.0628 | 0.168 | 0.109 | 0.125 | 0.467 | 0.696 | 0.039
COc1cc(CNc2nc3cc(C(F)(F)F)ccc3nc2C)cc(OC)c1OC | 50.7 | 65.7 | 40 |  | 71.3 | 37.9 | 30.8 | 30.8 |  | 46.5 |  |  |  |  |  |  |  |  |  | 
COc1cc(-c2nc3nc(N4CCN(C)CC4)ccc3[nH]2)c(OC)c2[nH]c(COC(C)=O)nc12 |  |  | 83.3 | 72.4 | > 100 | 61.4 | 34.4 | 98.8 | > 100 | > 100 | > 100 |  |  |  |  |  |  |  |  | 
COc1nc2[nH]ccc2c(=O)n1C | > 100 | > 100 | > 100 |  |  | > 100 | > 100 | > 100 | > 100 | > 100 |  |  |  |  |  |  |  |  |  | 
CC(=O)NC1=C(NCc2ccc(Cl)cc2)C(=O)c2ccccc2C1=O | > 50 |  | > 50 | 15.7 | > 50 | 12.4 | 13.5 | > 50 |  | 47 |  |  |  |  |  |  |  |  |  | 
C#CCOC(=O)C(N)CCCN=C(N)N (stereo not drawn) | > 100 | > 100 | > 100 | > 100 | > 100 | > 100 | > 100 | > 100 | > 100 |  | > 100 |  |  |  |  |  |  |  |  | 
O=C(C#Cc1cn(C2CC(O)C(CO)O2)c(=O)[nH]c1=O)c1ccccc1 (stereo not drawn) |  | > 100 | > 100 | > 100 | > 100 | > 100 | > 100 | > 100 |  | > 100 | > 100 |  |  |  |  |  |  |  |  | 
